# Experimental data taken from US8088806B2 (Achillion Pharmaceuticals, Inc., priority 2005, dated 2012).
# Test system: HCV replicon
# Assay: Replicon based assay of HCV replication inhibition (NPT ELISA)
# Type: cell-based, Hepatitis C virus
# Conditions: Hepatitis C virus, Huh-7, 72 h, Table I; Huh-7 HCV replicon-containing cells, three days; read-out: Activity
# Experimental: Compounds claimed herein are tested for the ability to inhibit viral replication of the Hepatitis C replicon in cultured cells in which the HCV replicon construct has been incorporated. The HCV replicon system was described by Bartenschlager, et. al (Science, 285, pp. 110-113 (1999)). The replicon system is predictive of in vivo anti-HCV activity; compounds that are active in humans uniformly evidence activity in the replicon assay.
# In this assay HCV replicon containing cells are treated with different concentrations of the test compound to ascertain the ability of the test compound to suppress replication of the HCV replicon. As a positive control, HCV replicon-containing cells are treated with different concentrations of interferon alpha, a known inhibitor of HCV replication. The replicon assay system includes Neomycin Phosphotransferase (NPT) as a component of the replicon itself in order to detect the transcription of replicon gene products in the host cell. Cells in which the HCV replicon is actively replicating have high levels of NPT; the level of NPT is proportional to HCV replication. […] The NPT level of each sample is measured using a captured ELISA.
# A protocol for testing compounds for the ability to inhibit viral replication of the Hepatitis C replicon cultured cells in which the replicon construct has been incorporated, follows.
# The HCV replicon contains, 5′-3′, the HCV-IRES, the neomycin phosphotransferase (neo) gene, the IRES of encephalomyocarditis virus, which directs translation of HCV sequences NS3 to NS5B, and the 3′-NTR. The sequence of the HCV replicon has been deposited in GenBank (Accession no. AJ242652).
# The replicon is transfected into Huh-7 cells using standard methods such as electroporation.
# The equipment and materials include, but are not limited to, Huh-7 HCV replicon-containing cells, maintenance media (DMEM (Dulbecco's modified Eagle media) supplemented with 10% FBS, L-glutamine, non-essential amino acids, penicillin (100 units/ml), streptomycin (100 micrograms/ml), and 500 micrograms/ml of Geneticin (G418), screening media (DMEM supplemented with 10% FBS, L-glutamine, non-essential amino acids, penicillin (100 units/ml) and streptomycin (100 micrograms/ml)), 96 well tissue culture plates (flat bottom), 96 well plates (U bottom for drug dilution), Interferon alpha for positive control, fixation reagent (such as methanol: acetone), primary antibody (rabbit anti-NPTII), secondary antibody: Eu-N1l, and enhancement solution.
# The cells are then seeded onto 96-well plates at a density of 6000-7500 cells/100 microliters/well (6-7.5×10^5 cells/10 ml/plate). The plates are then incubated at 37° C. in a 5% CO2 incubator.
# HCV replicon-containing cells are rinsed with once PBS once; 2 mls of trypsin are then added. Cells are incubated at 37° C. in a 5% CO2 incubator for 3-5 minutes. 10 mls of complete medium is added to stop the reaction. Cells are blown gently, put into a 15 ml tube, and spun at 1200 rpm for four minutes. The trypsin/medium solution is removed and 5 mls of medium (500 ml DMEM (high glucose)) from BRL catalog #12430-054; 50 mls 10% FBS, 5% Geneticin G418 (50 mg/ml, BRL catalog #10131-035), 5 ml MEM non-essential amino acids (100×BRL #11140-050) and 5 ml pen-strep (BRL # 15140-148) is added. The cells and media are mixed carefully
# Cells are plated with screening medium (500 ml DMEM (BRL #21063-029), 50 ml FBS (BRL #10082-147) and 5 ml MEM non-essential amino acid (BRL #11140-050) at 6000-7500 cells/100 μl/well of 96 well plate (6-7.5×10^5 cells/10 ml/plate). Plates are placed into 37° C. 5% CO2 incubator overnight.
# The following morning, drugs (test compounds or interferon alpha) are diluted in 96 well U bottom plates with media or DMSO/media, depending on the final concentration chosen for screening. Generally for 6 concentrations of each test compounds ranging from 10 micromolar to 0.03 micromolar are applied. […]
row,SMILES,EC50
1,"CCCCOc1ccc(CNc2nc(-c3cccnc3)cs2)cc1 [compound 81, N-(4-butoxybenzyl)-4-(pyridin-3-yl)thiazol-2-amine]",> 10 µM
2,"CCCCc1ccc(CNc2nc(-c3cccnc3)cs2)cc1 [compound 82, N-(4-butylbenzyl)-4-(pyridin-3-yl)thiazol-2-amine]",> 10 µM
3,"c1ccc(Oc2cccc(CCNc3nc(-c4cccnc4)cs3)c2)cc1 [compound 83, N-(3-phenoxyphenethyl)-4-(pyridin-3-yl)thiazol-2-amine]",> 10 µM
4,"c1ccc(Oc2ccc(CCNc3nc(-c4cccnc4)cs3)cc2)cc1 [compound 84, N-(4-phenoxyphenethyl)-4-(pyridin-3-yl)thiazol-2-amine]",> 10 µM
5,"CCCCCOc1ccc(Nc2nc(-c3cccnc3)cs2)cc1 [compound 85, N-(4-(pentyloxy)phenyl)-4-(pyridin-3-yl)thiazol-2-amine]",< 1 µM
6,"CCCCCc1ccc(Nc2nc(-c3cccnc3)cs2)cc1 [compound 86, N-(4-pentylphenyl)-4-(pyridin-3-yl)thiazol-2-amine]",< 1 µM
7,"c1ccc(COc2cccc(Nc3nc(-c4cccnc4)cs3)c2)cc1 [compound 87, N-(3-(benzyloxy)phenyl)-4-(pyridin-3-yl)thiazol-2-amine]",< 1 µM
8,"c1ccc(Oc2cccc(Nc3nc(-c4cccnc4)cs3)c2)cc1 [compound 88, N-(3-phenoxyphenyl)-4-(pyridin-3-yl)thiazol-2-amine]",< 1 µM
9,c1ccc(CCOc2cccc(Nc3nc(-c4cccnc4)cs3)c2)cc1 [compound 89],< 1 µM
10,"CCCCCCOc1ccc(Nc2nc(-c3cccnc3)cs2)cc1 [compound 90, N-(4-(hexyloxy)phenyl)-4-(pyridin-3-yl)thiazol-2-amine]",< 1 µM
11,"CCCCOc1ccc(Nc2nc(-c3cccnc3)cs2)cc1 [compound 91, N-(4-butoxyphenyl)-4-(pyridin-3-yl)thiazol-2-amine]",< 1 µM
12,"CCCCCCCOc1ccc(Nc2nc(-c3cccnc3)cs2)cc1 [compound 92, N-(4-(heptyloxy)phenyl)-4-(pyridin-3-yl)thiazol-2-amine]",< 1 µM
13,"CCCCCCCCOc1ccc(Nc2nc(-c3cccnc3)cs2)cc1 [compound 93, N-(4-(octyloxy)phenyl)-4-(pyridin-3-yl)thiazol-2-amine]",< 1 µM
14,"CCCCCCCCc1ccc(Nc2nc(-c3cccnc3)cs2)cc1 [compound 95, N-(4-octylphenyl)-4-(pyridin-3-yl)thiazol-2-amine]",< 1 µM
15,"CCCCc1ccc(Nc2nc(-c3cccnc3)cs2)cc1 [compound 96, N-(4-butylphenyl)-4-(pyridin-3-yl)thiazol-2-amine]",1 to 10 µM
16,"c1ccc(Cc2cccc(Nc3nc(-c4cccnc4)cs3)c2)cc1 [compound 97, N-(3-benzylphenyl)-4-(pyridin-3-yl)thiazol-2-amine]",< 1 µM
17,"N#CCc1ccc(Nc2nc(-c3cccnc3)cs2)cc1 [compound 98, 2-(4-(4-(pyridin-3-yl)thiazol-2-ylamino)phenyl)acetonitrile]",> 10 µM
18,"c1cncc(-c2csc(Nc3ccc(N4CCOCC4)cc3)n2)c1 [compound 99, N-(4-morpholinophenyl)-4-(pyridin-3-yl)thiazol-2-amine]",> 10 µM
19,"c1cncc(-c2csc(Nc3ccc(C4CCCCC4)cc3)n2)c1 [compound 100, N-(4-cyclohexylphenyl)-4-(pyridin-3-yl)thiazol-2-amine]",< 1 µM

row,SMILES,EC50
1,"c1cncc(-c2csc(Nc3ccc(N4CCCCC4)cc3)n2)c1 [compound 101, N-(4-(piperidin-1-yl)phenyl)-4-(pyridin-3-yl)thiazol-2-amine]",> 10 µM
2,"c1cncc(-c2csc(Nc3ccc(-c4csnn4)cc3)n2)c1 [compound 102, N-(4-(1,2,3-thiadiazol-4-yl)phenyl)-4-(pyridin-3-yl)thiazol-2-amine]",> 10 µM
3,"c1cncc(-c2csc(Nc3ccc(-n4ccnc4)cc3)n2)c1 [compound 103, N-(4-(1H-imidazol-1-yl)phenyl)-4-(pyridin-3-yl)thiazol-2-amine]",> 10 µM
4,"c1cncc(-c2csc(Nc3ccc4c(c3)Cc3ccccc3-4)n2)c1 [compound 104, N-(9H-fluoren-7-yl)-4-(pyridin-3-yl)thiazol-2-amine]",1 to 10 µM
5,"Cc1nccc(-c2cccc(Nc3nc(-c4cccnc4)cs3)c2)n1 [compound 105, N-(3-(2-methylpyrimidin-4-yl)phenyl)-4-(pyridin-3-yl)thiazol-2-amine]",> 10 µM
6,"CC(C)N(c1ccccc1)c1ccc(Nc2nc(-c3cccnc3)cs2)cc1 [compound 106, N1-isopropyl-N1-phenyl-N4-(4-(pyridin-3-yl)thiazol-2-yl)benzene-1,4-diamine]",> 10 µM
7,"CCCCOC(=O)c1ccc(Nc2nc(-c3cccnc3)cs2)cc1 [compound 107, butyl 4-(4-(pyridin-3-yl)thiazol-2-ylamino)benzoate]",> 10 µM
8,"CCOC(=O)C1CCN(Cc2cccc(Nc3nc(-c4cccnc4)cs3)c2)CC1 [compound 108, ethyl 1-(3-(4-(pyridin-3-yl)thiazol-2-ylamino)benzyl)piperidine-4-carboxylate]",> 10 µM
9,"CCOC(=O)Cc1ccc(Nc2nc(-c3cccnc3)cs2)cc1 [compound 109, ethyl 2-(4-(4-(pyridin-3-yl)thiazol-2-ylamino)phenyl)acetate]",> 10 µM
10,"CCCc1ccc(Nc2nc(-c3cccnc3)cs2)cc1 [compound 110, N-(4-propylphenyl)-4-(pyridin-3-yl)thiazol-2-amine]",> 10 µM
11,"CC(C)(C)c1ccc(NC(=O)c2nc(-c3cccnc3)cs2)cc1 [compound 111, N-(4-tert-butylphenyl)-4-(pyridin-3-yl)thiazole-2-carboxamide]",> 10 µM
12,"CCCCCOc1ccc(NC(=O)c2nc(-c3cccnc3)cs2)cc1C(F)(F)F [compound 112, N-(3-(trifluoromethyl)-4-(pentyloxy)phenyl)-4-(pyridin-3-yl)thiazole-2-carboxamide]",> 10 µM
13,"CCCCCOc1ccc(NC(=O)c2nc(-c3cccnc3)cs2)cc1 [compound 113, N-(4-(pentyloxy)phenyl)-4-(pyridin-3-yl)thiazole-2-carboxamide]",> 10 µM
14,O=C(Nc1ccc(OCc2ccccc2)cc1)c1nc(-c2cccnc2)cs1 [compound 114],> 10 µM
15,"O=C(Nc1ccc(Oc2ccc(Cl)cc2)cc1)c1nc(-c2cccnc2)cs1 [compound 115, N-(4-(4-chlorophenoxy)phenyl)-4-(pyridin-3-yl)thiazole-2-carboxamide]",> 10 µM
16,"CCCCCOc1ccc(N(C(C)=O)c2nc(-c3ccc(F)cc3)cs2)cc1C(F)(F)F [compound 116, N-(3-(trifluoromethyl)-4-(pentyloxy)phenyl)-N-(4-(4-fluorophenyl)thiazol-2-yl)acetamide]",< 1 µM
17,"CCCCCOc1ccc(Nc2ncc(-c3ccccc3)s2)cc1C(F)(F)F [compound 117, N-(3-(trifluoromethyl)-4-(pentyloxy)phenyl)-5-phenylthiazol-2-amine]",< 1 µM
18,"Fc1ccc(Nc2nc(C(F)(F)F)c(-c3cccc(Cl)c3)s2)cc1 [compound 118, 5-(3-chlorophenyl)-4-(trifluoromethyl)-N-(4-fluorophenyl)thiazol-2-amine]",> 10 µM
19,"COc1ccc(Nc2nc(-c3ccccc3)c(-c3ccccc3)s2)cc1 [compound 119, N-(4-methoxyphenyl)-4,5-diphenylthiazol-2-amine]",< 1 µM
